Results on 29 molecules are retold here after patent US20250051347A1, “BIFUNCTIONAL CHIMERIC HETEROCYCLIC COMPOUND AND USE THEREOF AS ANDROGEN RECEPTOR DEGRADER” (Hinova Pharmaceuticals, Inc., priority 2021, published 2025).

Molecules are shown by their SMILES. Like-named read-outs stand apart in the source and are kept apart here.

Assay [1] addresses T1, androgen receptor (AR) splicing variant AR-v7 (Homo sapiens, UniProt P10275).
T1 construct: The degradation activity of compounds on AR-v7 in 22RV1 cells; host or cells: 22RV1 cells
T1 sequence (P10275 1-644 isoform P10275-3): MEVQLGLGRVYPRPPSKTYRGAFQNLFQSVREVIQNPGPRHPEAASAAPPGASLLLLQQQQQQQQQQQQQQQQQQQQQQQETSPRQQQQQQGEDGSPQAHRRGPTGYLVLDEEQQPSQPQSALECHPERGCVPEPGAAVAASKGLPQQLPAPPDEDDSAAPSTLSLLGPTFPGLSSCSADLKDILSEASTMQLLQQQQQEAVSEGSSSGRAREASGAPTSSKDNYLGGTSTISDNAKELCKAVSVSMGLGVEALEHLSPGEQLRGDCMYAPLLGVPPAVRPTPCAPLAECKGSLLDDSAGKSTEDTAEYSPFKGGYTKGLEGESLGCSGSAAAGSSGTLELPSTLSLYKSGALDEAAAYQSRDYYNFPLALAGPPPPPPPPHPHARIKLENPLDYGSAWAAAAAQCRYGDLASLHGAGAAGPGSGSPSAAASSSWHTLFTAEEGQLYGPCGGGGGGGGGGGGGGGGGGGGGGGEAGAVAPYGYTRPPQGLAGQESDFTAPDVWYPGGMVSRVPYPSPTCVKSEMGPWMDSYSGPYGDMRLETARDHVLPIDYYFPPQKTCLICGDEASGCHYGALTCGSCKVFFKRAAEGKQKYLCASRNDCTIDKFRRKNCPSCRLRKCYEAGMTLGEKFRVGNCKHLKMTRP
Description: Degradation activity on androgen receptor splicing variant AR-v7 in 22RV1 cells (ELISA). The settings on record: AR-v7 degradation in 22RV1 cells, 48 h, class symbols. In kind it is cell-based. Background: In an ELISA, binding on a coated surface is turned into a signal by an enzyme label.

Assay [2] relates to 22RV1 cells.
Description: • 22RV1 cell lines (Cobioer, CBP6034) • Penicillin-Streptomycin (Hyclone, Cat. No. SV30010) • Cell counting kit-8 (Signalway Antibody, Cat. No. CP002)
Then, two wells were set for each concentration. 20 μL of the diluted compound solution was added to the cell culture well, and then the plate was gently shaken to mix. In addition, the experiment included 3 negative control wells only containing cells and 3 blank control wells only containing culture medium.
[3] abbreviates: read-out: 22RV1 IC50, 22RV1 cells, 6 days culture, CCK-8, OD 450 nm.
[4] abbreviates: Homo sapiens, 22Rv1, 144 h, read-out: 22RV1 IC50 (nM), 22RV1 cells, 6 days culture, CCK-8, OD 450 nm.

As usually defined, the DC50 is the concentration at which degradation of the target reaches its halfway point. High values mean a less potent degrader, low ones a more potent degrader. The term IC50 denotes the midpoint of a concentration-inhibition curve. `CCC(CC)(c1ccc(Oc2cnc(C(C)O)nc2)cc1)c1ccc(O[C@H]2C[C@@H](Nc3ccc4c(c3)C(=O)N(C3CCC(=O)NC3=O)C4=O)C2)cc1` (stereo partly shown) [Example 133] showed a DC50 in assay [1] of under 10 nM. Further, in assay [2] (setting [3]), the IC50 amounted to 9 nM.

For the molecule `CC(C)(c1ccc(OCc2ccnc(-c3nnco3)n2)cc1)c1ccc(O[C@H]2C[C@H](Nc3ccc4c(c3)C(=O)N(C3CCC(=O)NC3=O)C4=O)C2)cc1` (stereo partly shown) [Example 468, 5-(((1r,3r)-3-(4-(2-(4-((2-(1,3,4-oxadiazol-2-yl)pyrimidin-4-yl)methoxy)phenyl)propan-2-yl)phenoxy)cyclobutyl)amino)-2-(2,6-dioxopiperidin-3-yl)isoindolin-1,3-dione], in assay [1], the DC50 was under 10 nM. Besides, the IC50 in assay [2] (setting [4]) worked out at 5 nM.

In assay [1], `CC(C)(c1ccc(Oc2nccc(N3CC4(COC4)C3)n2)cc1)c1ccc(O[C@H]2C[C@H](Nc3ccc4c(c3)C(=O)N(C3CCC(=O)NC3=O)C4=O)C2)cc1` (stereo partly shown) [Example 156] registered a half-maximal degradation concentration (DC50) of under 10 nM. In assay [2] (setting [4]), the IC50 is 10 nM.

As to `CCC(CC)(c1ccc(Oc2ccc(-c3noc(C)n3)nn2)cc1)c1ccc(O[C@H]2C[C@H](Nc3ccc4c(c3)C(=O)N(C3CCC(=O)NC3=O)C4=O)C2)cc1` (stereo partly shown) [Example 527], in assay [1], the DC50 was under 10 nM. Also, in assay [2] (setting [4]), the IC50 was 3 nM.

In assay [1], `CC1CN(c2nccc(COc3ccc(C(C)(C)c4ccc(OC5CC(Nc6ccc7c(c6)C(=O)N(C6CCC(=O)NC6=O)C7=O)C5)cc4)cc3)n2)CCN1C` (stereo not shown) [Example 448] yielded a DC50 of 11 to 100 nM. Also, the IC50 in assay [2] (setting [4]) turned out to be 11 nM.

In assay [1], `Cc1nnc(-c2cnnc(Oc3ccc(C(C)(C)c4ccc(O[C@H]5C[C@H](Nc6ccc7c(c6)C(=O)N(C6CCC(=O)NC6=O)C7=O)C5)cc4)cc3)c2)o1` (stereo partly shown) [Example 218] came in with a DC50 of under 10 nM. In assay [2] (setting [4]), the concentration for half-maximal inhibition (IC50) was 6 nM.

In assay [1], `CC(C)(O)c1cncc(Oc2ccc(C(C)(C)c3ccc(O[C@H]4C[C@H](Nc5ccc6c(c5)C(=O)N(C5CCC(=O)NC5=O)C6=O)C4)cc3)cc2)n1` (stereo partly shown) [Example 162] yielded a DC50 of under 10 nM. Besides, the IC50 in assay [2] (setting [4]) was found to be 10 nM.

`Cc1nnc(-c2cnc(Oc3ccc(C(C)(C)c4ccc(O[C@H]5C[C@H](Nc6ccc7c(c6)C(=O)N(C6CCC(=O)NC6=O)C7=O)C5)cc4)cc3)cn2)o1` (stereo partly shown) [Example 589] had a DC50 in assay [1] of under 10 nM. Further, the IC50 in assay [2] (setting [4]) was found to be 7 nM.

Molecule `CNc1cnc(Oc2ccc(C(C)(C)c3ccc(O[C@H]4C[C@H](Nc5ccc6c(c5)C(=O)N(C5CCC(=O)NC5=O)C6=O)C4)cc3)cc2)cn1` (stereo partly shown) [Example 551] had a DC50 in assay [1] of 11 to 100 nM. The IC50 in assay [2] (setting [4]) came out at 12 nM.

In turn, `CC(C)(c1ccc(OCCCNc2ccc3c(c2)C(=O)N(C2CCC(=O)NC2=O)C3=O)cc1)c1ccc(OCc2nc(C(N)=O)no2)cc1` (stereo not shown) [Example 143, 5-((4-(2-(4-(3-((2-(2,6-dioxopiperidin-3-yl)-1,3-dioxoisoindolin-5-yl)amino)propoxy)phenyl)propan-2-yl)phenoxy)methyl)-1,2,4-oxadiazol-3-carbonylamine] registered a DC50 in assay [1] of 11 to 100 nM. In addition, the 50% inhibitory concentration (IC50) in assay [2] (setting [4]) is 160 nM.

In assay [1], `CC(C)(c1ccc(O[C@H]2C[C@@H](Nc3ccc4c(c3)C(=O)N(C3CCC(=O)NC3=O)C4=O)C2)cc1)c1ccc(N2CCc3ncnc(N4CC5(COC5)C4)c3C2)cc1` (stereo partly shown) [Example 194] registered a DC50 of 11 to 100 nM. Also, in assay [2] (setting [4]), the IC50 was found to be 33 nM.

Take `COc1nccc(COc2ccc(C3(c4ccc(O[C@H]5C[C@H](Nc6ccc7c(c6)C(=O)N(C6CCC(=O)NC6=O)C7=O)C5)cc4)CCC3)cc2)n1` (stereo partly shown) [Example 357, 2-(2,6-dioxopiperidin-3-yl)-5-(((1r,3r)-3-(4-(1-(4-((2-methoxypyrimidin-4-yl)methoxy)phenyl)cyclobutyl)phenoxy)cyclobutyl)amino)isoindolin-1,3-dione]: the DC50 in assay [1] was under 10 nM. In addition, in assay [2] (setting [4]), the IC50 came to 5 nM.

`CC(C)(c1ccc(OCc2ccnc(N3CCOCC3)n2)cc1)c1ccc(OC2CC(Nc3ccc4c(c3)C(=O)N(C3CCC(=O)NC3=O)C4=O)C2)cc1` (stereo not shown) [Example 396, 2-(2,6-dioxopyridin-3-yl)-5-(1s,3s)-3-(4-(2-(4-(2-morpholinylpyrimidin-4-yl)methoxy)phenyl)propan-2-yl)phenoxy)cyclobutyl)amino)isoindol-1,3-dione]: the DC50 in assay [1] is under 10 nM. For the same molecule, the IC50 in assay [2] (setting [3]) was found to be 23 nM.

`CC(C)(c1ccc(OCc2ccnc(NC3COC3)n2)cc1)c1ccc(O[C@H]2C[C@@H](Nc3ccc4c(c3)C(=O)N(C3CCC(=O)NC3=O)C4=O)C2)cc1` (stereo partly shown) [Example 237] had a DC50 in assay [1] of under 10 nM. The IC50 in assay [2] (setting [4]) turned out to be 9 nM.

Molecule `Cc1nnc(-c2ncc(Oc3ccc(C(C)(C)c4ccc(O[C@H]5C[C@H](Nc6ccc7c(c6)C(=O)N(C6CCC(=O)NC6=O)C7=O)C5)cc4)cc3)cn2)o1` (stereo partly shown) [Example 473] displayed a half-maximal degradation concentration (DC50) in assay [1] of 11 to 100 nM. In addition, the IC50 in assay [2] (setting [4]) came to 5 nM.

Consider `CN1CCN(c2ccc(Oc3ccc(C(C)(C)c4ccc(O[C@H]5C[C@H](Nc6ccc7c(c6)C(=O)N(C6CCC(=O)NC6=O)C7=O)C5)cc4)cc3)nn2)CC1` (stereo partly shown) [Example 425], for which the DC50 in assay [1] is under 10 nM. For the same molecule, the IC50 in assay [2] (setting [4]) was determined as 16 nM.

Consider `CC(C)(c1ccc(OCc2cnc(N3CC4(COC4)C3)nc2)cc1)c1ccc(O[C@H]2C[C@H](Nc3ccc4c(c3)C(=O)N(C3CCC(=O)NC3=O)C4=O)C2)cc1` (stereo partly shown) [Example 535], for which, in assay [1], the DC50 was in the range of 11 to 100 nM. Besides, in assay [2] (setting [4]), the IC50 worked out at 35 nM.

In turn, `C[C@@H](O)c1cnc(Oc2ccc(C3(c4ccc(OC5CC(Nc6ccc7c(c6)C(=O)N(C6CCC(=O)NC6=O)C7=O)C5)cc4)CCCC3)cc2)cn1` (stereo partly shown) [Example 178, 2-(2,6-dioxopiperidin-3-yl)-5-(((1r,3r)-3-(4-(1-(4-((5-(1-hydroxylethyl)pyrazin-2-yl)oxy)phenyl)cyclopentyl)phenoxy)cyclobutyl)amino) isoindolin-1,3-dione] returned a DC50 in assay [1] of under 10 nM. In addition, the IC50 in assay [2] (setting [3]) amounted to 5 nM.

`CC(Oc1ccc(C(C)(C)c2ccc(O[C@H]3C[C@H](Nc4ccc5c(c4)C(=O)N(C4CCC(=O)NC4=O)C5=O)C3)cc2)cc1)c1ncnc(N2CC3(COC3)C2)c1F` (stereo partly shown) [Example 280] yielded a DC50 in assay [1] of under 10 nM. The IC50 in assay [2] (setting [4]) was 7 nM.

As for `CC(=O)c1nccc(COc2ccc(C(C)(C)c3ccc(OC[C@@H]4CCN4c4ccc5c(c4)C(=O)N(C4CCC(=O)NC4=O)C5=O)cc3)cc2)n1` (stereo partly drawn) [Example 308, 5-((S)-2-((4-(2-(4-((2-acetylpyrimidin-4-yl)methoxy)phenyl)propan-2-yl)phenoxy)methyl)azetidin-1-yl)-2-(2,6-dioxopiperidin-3-yl)isoindolin-1,3-dione], the DC50 in assay [1] was in the range of 11 to 100 nM. Further, the 50% inhibitory concentration (IC50) in assay [2] (setting [4]) stood at 19 nM.

As for `CCC(=O)c1ncc(Oc2ccc(C(C)(C)c3ccc(O[C@H]4C[C@H](Nc5ccc6c(c5)C(=O)N(C5CCC(=O)NC5=O)C6=O)C4)cc3)cc2)cn1` (stereo partly shown) [Example 427], the DC50 in assay [1] was under 10 nM. Besides, the IC50 in assay [2] (setting [4]) amounted to 6 nM.

Molecule `CC(C)(c1ccc(Oc2nncs2)cc1)c1ccc(O[C@H]2C[C@H](Nc3ccc4c(c3)C(=O)N(C3CCC(=O)NC3=O)C4=O)C2)cc1` (stereo partly shown) [Example 592] showed a half-maximal degradation concentration (DC50) in assay [1] of under 10 nM. In addition, the IC50 in assay [2] (setting [4]) stood at 8 nM.

For `CC(=O)c1ncc(Oc2ccc(C(C)c3ccc(O[C@H]4C[C@H](Nc5ccc6c(c5)C(=O)N(C5CCC(=O)NC5=O)C6=O)C4)cn3)cc2)cn1` (stereo partly shown) [Example 220], the DC50 in assay [1] was under 10 nM. For the same molecule, in assay [2] (setting [4]), the IC50 was determined as 8 nM.

`CC(C)(c1ccc(OCCCNc2ccc3c(c2)C(=O)N(C2CCC(=O)NC2=O)C3=O)cc1)c1ccc(OCc2nc(CO)co2)cc1` (stereo not shown) [Example 185, 2-(2,6-dioxopiperidin-3-yl)-5-((3-(4-(2-(4-((4-(hydroxylmethyl)oxazol-2-yl)methoxy)phenyl)propan-2-yl)phenoxy)propyl)amino)isoindolin-1,3-dione] displayed a DC50 in assay [1] of 11 to 100 nM. Further, in assay [2] (setting [4]), the IC50 was determined as 56 nM.

On to `Cc1nc(-c2nccc(Oc3ccc(C(C)(C)c4ccc(O[C@H]5C[C@H](Nc6ccc7c(c6)C(=O)N(C6CCC(=O)NC6=O)C7=O)C5)cc4)cc3)n2)no1` (stereo partly shown) [Example 288], for which, in assay [1], the DC50 was under 10 nM. Also, the IC50 in assay [2] (setting [4]) was 4 nM.

On to `CC(C)(c1ccc(OCCCNc2ccc3c(c2)C(=O)N(C2CCC(=O)NC2=O)C3=O)cc1)c1ccc(OCc2ccnc(N3CCC3)n2)cc1` (stereo not shown) [Example 383], for which the DC50 in assay [1] lay in the range of 11 to 100 nM. In addition, the IC50 in assay [2] (Homo sapiens, 22Rv1, 144 h, read-out: 22RV1 IC50 (nM)) is 34 nM.

On to `Cc1nc(-c2ncc(Oc3ccc(C4(c5ccc(O[C@H]6C[C@H](Nc7ccc8c(c7)C(=O)N(C7CCC(=O)NC7=O)C8=O)C6)cc5)CCCC4)cc3)cn2)no1` (stereo partly shown) [Example 293], for which the DC50 in assay [1] is under 10 nM. The IC50 in assay [2] (setting [4]) turned out to be 2.5 nM.

In assay [1], `CC(C)(c1ccc(OCc2ccnc(N3CC(N4CC(F)C4)C3)n2)cc1)c1ccc(O[C@H]2C[C@H](Nc3ccc4c(c3)C(=O)N(C3CCC(=O)NC3=O)C4=O)C2)cc1` (stereo partly shown) [Example 420] had a DC50 of under 10 nM. The IC50 in assay [2] (setting [4]) was 5 nM.

In assay [1], `CC(C)(c1ccc(Oc2cnc(-n3ccnn3)nc2)cc1)c1ccc(O[C@H]2C[C@H](Nc3ccc4c(c3)C(=O)N(C3CCC(=O)NC3=O)C4=O)C2)cc1` (stereo partly shown) [Example 476] returned a half-maximal degradation concentration (DC50) of 11 to 100 nM. Moreover, the IC50 in assay [2] (setting [4]) came out at 14 nM.
